In US8183279B2, “1,3-dihydroisoindole derivatives” (Merck Patent Gesellschaft Mit Beschrankter Haftung, priority 2007, dated 2012):

molecular target: T1, Recombinant human HSP90α (Homo sapiens, UniProt P07900); assay: HSP90 inhibition, [3H]17AAG radioligand filter binding test; conditions: competition with 0.08 μM [3H]17AAG, HSP90 1.5 μg/assay, 22° C., 30 min
T1 construct: host or cells: E. coli
Text: The binding of geldanamycin or 17-allylamino-17-demethoxygeldanamycin (17AAG) to HSP90 and competitive inhibition thereof can be utilised in order to determine the inhibitory activity of the compounds according to the invention (Carreras et al. 2003, Chiosis et al. 2002).
In the specific case, a radioligand filter binding test is used. The radioligand used here is tritium-labelled 17-allylaminogeldanamycin,
[3H]17AAG. This filter binding test allows a targeted search for inhibitors which interfere with the ATP binding site.
Recombinant human HSP90α(E. coli expressed, 95% purity);
[3H]17AAG (17-allylaminogeldanamycin, [allylamino-2,3-^3H. Specific activity: 1.11×10^12 Bq/mmol (Moravek, MT-1717);
HEPES filter buffer (50 mM HEPES, pH 7.0, 5 mM MgCl2, BSA 0.01%) Multiscreen FB (1 μm) filter plate (Millipore, MAFBNOB 50).
The 96-well microtitre filter plates are firstly irrigated and coated with 0.1% of polyethylenimine.
The test is carried out under the following conditions:
Reaction temperature 22° C.
Reaction time: 30 min., shaking at 800 rpm
50 mM HEPES HCl, pH 7.0, 5 mM MgCl2, 0.01% (w/v) of BSA
At the end of the reaction, the supernatant in the filter plate is removed by suction with the aid of a vacuum manifold (Multiscreen Separation System, Millipore), and the filter is washed twice.
The filter plates are then measured in a beta counter (Microbeta, Wallac) with scintillator (Microscint 20, Packard).
“% of control” is determined from the “counts per minutes” values, and the IC-50 value of a compound is calculated therefrom.

IC50, 10 to 1000 nM:
CCCCN(C)C(=O)c1cc(C(=O)N2Cc3ccc(OCCN4CCNCC4)cc3C2)c(O)cc1O [Compound A7]
CCCCN(C)C(=O)c1cc(C(=O)N2Cc3ccc(C(=O)N(C)C)cc3C2)c(O)cc1O [Compound A41, N,N'-Dimethyl-2-[5-(butylmethylcarbamoyl)-2,4-dihydroxybenzoyl]-2,3-dihydro-1H-isoindole-5-carboxamide]
CCCCN(C)C(=O)c1cc(C(=O)N2Cc3ccc(OCCCC#N)cc3C2)c(O)cc1O [Compound A33, N-Butyl-5-[5-(3-cyanopropoxy)-1,3-dihydroisoindole-2-carbonyl]-2,4-dihydroxy-N-methylbenzamide]
CN(C)CCOc1ccc2c(c1)CN(C(=O)c1cc(C(=O)N3Cc4ccccc4C3)c(O)cc1O)C2 [Compound A46, [5-(1,3-Dihydroisoindole-2-carbonyl)-2,4-dihydroxyphenyl]-[5-(2-dimethylaminoethoxy)-1,3-dihydroisoindol-2-yl]methanone]
CCCCN(C)C(=O)c1cc(C(=O)N2Cc3ccc(OCC(N)=O)cc3C2)c(O)cc1O [Compound A32, N-Butyl-5-(5-carbamoylmethoxy-1,3-dihydroisoindole-2-carbonyl)-2,4-dihydroxy-N-methylbenzamide]
CN(C)CCOc1ccc2c(c1)CN(C(=O)c1cc(C(=O)N(C)Cc3ccccc3)c(O)cc1O)C2 [Compound A45, N-Benzyl-5-[5-(2-dimethylaminoethoxy)-1,3-dihydroisoindole-2-carbonyl]-2,4-dihydroxy-N-methylbenzamide]
CCCCN(C)C(=O)c1cc(C(=O)N2Cc3ccc(OCCN(C)C)cc3C2)c(O)cc1O [Compound A3, N-butyl-5-[5-(2-dimethylaminoethoxy)-1,3-dihydroisoindole-2-carbonyl]-2,4-dihydroxy-N-methylbenzamide]
Cc1ccc(CN(C)C(=O)c2cc(C(=O)N3Cc4ccc(OCCN(C)C)cc4C3)c(O)cc2O)s1 [Compound A43, 5-[5-(2-Dimethylaminoethoxy)-1,3-dihydroisoindole-2-carbonyl]-2,4-dihydroxy-N-methyl-N-(5-methylthiophen-2-ylmethyl)benzamide]
CCCCN(C)C(=O)c1cc(C(=O)N2Cc3ccc(OCCO)cc3C2)c(O)cc1O [Compound A34, N-Butyl-2,4-dihydroxy-5-[5-(2-hydroxyethoxy)-1,3-dihydroisoindole-2-carbonyl]-N-methylbenzamide]
CCCCN(C)C(=O)c1cc(C(=O)N2Cc3ccc(C(N)=O)cc3C2)c(O)cc1O [Compound A42]
CCCCN(C)C(=O)c1cc(C(=O)N2Cc3ccc(OCCN4CCOCC4)cc3C2)c(O)cc1O [Compound A6]
CCCCN(C)C(=O)c1cc(C(=O)N2Cc3ccc(OCCNC)cc3C2)c(O)cc1O [Compound A35, N-Butyl-2,4-dihydroxy-N-methyl-5-[5-(2-methylaminoethoxy)-1,3-dihydroisoindole-2-carbonyl]benzamide]
CCCCN(C)C(=O)c1cc(C(=O)N2Cc3ccc(OCCN(C)CC)cc3C2)c(O)cc1O [Compound A40, N-Butyl-5-{5-[2-(ethylmethylamino)ethoxy]-1,3-dihydroisoindole-2-carbonyl}-2,4-dihydroxy-N-methylbenzamide]
CCCCN(C)C(=O)c1cc(C(=O)N2Cc3ccc(O)cc3C2)c(O)cc1O [Compound A1, N-butyl-2,4-dihydroxy-5-(5-hydroxy-1,3-dihydroisoindole-2-carbonyl)-N-methylbenzamide]
CCCCN(C)C(=O)c1cc(C(=O)N2Cc3ccccc3C2)c(O)cc1O [Compound A2, N-butyl-2,4-dihydroxy-5-(1,3-dihydroisoindole-2-carbonyl)-N-methylbenzamide]
CNCCOc1ccc2c(c1)CN(C(=O)c1cc(C(=O)N(C)Cc3ccc(C)s3)c(O)cc1O)C2 [Compound A48, 2,4-Dihydroxy-N-methyl-5-[5-(2-methylaminoethoxy)-1,3-dihydroisoindole-2-carbonyl]-N-(5-methylthiophen-2-ylmethyl)benzamide]
CN(C)CCOc1ccc2c(c1)CN(C(=O)c1cc(C(=O)N(C)Cc3ccco3)c(O)cc1O)C2 [Compound A44, 5-[5-(2-Dimethylaminoethoxy)-1,3-dihydroisoindole-2-carbonyl]-N-furan-2-ylmethyl-2,4-dihydroxy-N-methylbenzamide]
CCCCN(C)C(=O)c1cc(C(=O)N2Cc3ccc(-c4ccccc4)cc3C2)c(O)cc1O [Compound A38, N-Butyl-2,4-dihydroxy-N-methyl-5-(5-phenyl-1,3-dihydroisoindole-2-carbonyl)benzamide]
CCCCN(C)C(=O)c1cc(C(=O)N2Cc3ccc(C(=O)OC)cc3C2)c(O)cc1O [Compound A39, Methyl 2-[5-(butylmethylcarbamoyl)-2,4-dihydroxybenzoyl]-2,3-dihydro-1H-isoindole-5-carboxylate]
CCCCN(C)C(=O)c1cc(C(=O)N2Cc3ccc(OCCCNC)cc3C2)c(O)cc1O [Compound A47, N-Butyl-2,4-dihydroxy-N-methyl-5-[5-(3-methylaminopropoxy)-1,3-dihydroisoindole-2-carbonyl]benzamide]
CCCCN(C)C(=O)c1cc(C(=O)N2Cc3ccc(OCCN4CCCCC4)cc3C2)c(O)cc1O [Compound A8]
CNCCOc1ccc2c(c1)CN(C(=O)c1cc(C(=O)N(C)Cc3ccco3)c(O)cc1O)C2 [Compound A49, N-Furan-2-ylmethyl-2,4-dihydroxy-N-methyl-5-[5-(2-methylaminoethoxy)-1,3-dihydroisoindole-2-carbonyl]benzamide]
